One assay concerns NK cells. The assay can be described thus: Flow cytometry of GZMB-positive NK cells after pomalidomide treatment. The assay is classed as cell-based, human. Particulars: increase vs untreated. On the technique in general: A flow cytometer gives signals particle by particle.
The next assay concerns placental NK cells. Put plainly: Luminex (Five-Plex Antibody Kit) of GM-CSF and TNF-α secretion from treated NK cells. To be noted: treated cultured NK cells compared to controls.
For assay [1], the system named is day 21 cultivated placental NK cells. The assay can be described thus: ELISA of perforin and granzyme B secretion from treated NK cells. The assay is classed as cell-based, human. To be noted: treated day 21 cultivated placental NK cells compared to controls. As to the method:
In a separate experiment, secretion of perforin and granzyme B from pomalidomide- or lenalidomide-treated day 21 cultivated placental NK cells was evaluated by ELISA.
A general note: An ELISA detects its analyte on a solid surface through an enzyme-linked reagent.

The subject of the next assay is cultured PINK cells. Put plainly: qRT-PCR gene expression analysis of lenalidomide- and pomalidomide-treated cultured PINK cells. The assay is classed as cell-based, human. Particulars: for expression of GM-CSF, increase: treated PINK cells vs untreated. An excerpt: RNA isolation and purification.
Quantitative real-time (qRT-PCR) analysis.
(In general: Quantitative PCR measures a nucleic acid by following its amplification.)

Where [2] appears, read: treated vs untreated cultured PINK cells (Veh = 1).
Where [3] appears, read: treated vs untreated cultured PINK cells (Veh = 1.01).

On to `Nc1cccc2c1C(=O)N(C1CCC(=O)NC1=O)C2=O` (racemic) [pomalidomide, 4-amino-2-[(3RS)-2,6-dioxopiperidin-3-yl)-1H-isoindole-1,3(2H)-dione], for which the “increased percentage of GZMB-positive NK cells” value in the assay on NK cells turned out to be 25%. Also, in the assay on placental NK cells, the “increase in GM-CSF secretion” value is recorded as 357% and the “increase in TNF-α secretion” value was 147%. Also, in assay [1], the “increase in granzyme B secretion” value turned out to be 69% and the “increase in perforin secretion” value was determined as 121%. Further, the “increased granzyme B (GZMB) gene expression” value with cultured PINK cells (increase vs untreated, qRT-PCR) was 60% ± 1.7%. Moreover, the “expression of GM-CSF, increase” value with cultured PINK cells (qRT-PCR) is reported as 396% ± 0.3%. Further, in the assay with cultured PINK cells (setting [2]), the “Fold change of gene expression: ACTB” value turned out to be 0.77, the “Fold change of gene expression: BAX” value was determined as 2.23, the “Fold change of gene expression: CCL2” value is 5.46 and the “Fold change of gene expression: CCL3” value stood at 2.2. For the same compound, in the assay on cultured PINK cells (setting [2]), the “Fold change of gene expression: CCL5” value was determined as 1.78, the “Fold change of gene expression: CCR5” value is listed as 0.68, the “Fold change of gene expression: CD8A” value is 2.39 and the “Fold change of gene expression: CD68” value was 8.74. Moreover, in the assay with cultured PINK cells (setting [2]), the “Fold change of gene expression: CD80” value is given as 1.59, the “Fold change of gene expression: CSF1” value turned out to be 1.41, the “Fold change of gene expression: CSF2” value was 3.96 and the “Fold change of gene expression: ECE1” value is on record as 1.56. Besides, in the assay on cultured PINK cells (setting [2]), the “Fold change of gene expression: FAS” value worked out at 1.34, the “Fold change of gene expression: GUSB” value stood at 1.76, the “Fold change of gene expression: GZMB” value came out at 1.59 and the “Fold change of gene expression: IL2RA” value is given as 1.58. Moreover, in the assay with cultured PINK cells (setting [2]), the “Fold change of gene expression: IL8” value amounted to 1.62, the “Fold change of gene expression: LTA” value was 2.88, the “Fold change of gene expression: PRF1” value is recorded as 1.17 and the “Fold change of gene expression: PTGS2” value was 1.68. In the assay on cultured PINK cells (setting [2]), the “Fold change of gene expression: SKI” value came out at 1.96. Besides, in the assay with cultured PINK cells (setting [3]), the “Fold change of gene expression: GNLY” value stood at 1.96, the “Fold change of gene expression: IL1A” value is recorded as 2.61 and the “Fold change of gene expression: TBX21” value is on record as 2.05. Also, in the assay with cultured PINK cells (treated vs untreated cultured PINK cells (Veh = 1.02)), the “Fold change of gene expression: IL10” value is given as 1.52.
`Nc1cccc2c1CN(C1CCC(=O)NC1=O)C2=O` (centres unmarked) [lenalidomide, 3-(4'aminoisoindoline-1'-one)-1-piperidine-2,6-dione]: in the assay on placental NK cells, the “increase in GM-CSF secretion” value is listed as 166% and the “increase in TNF-α secretion” value is 76%. Also, in assay [1], the “increase in granzyme B secretion” value was determined as 113% and the “increase in perforin secretion” value amounted to 86%. Also, the “expression of GM-CSF, increase” value with cultured PINK cells (qRT-PCR) was 232% ± 1.6%. For the same compound, in the assay on cultured PINK cells (setting [2]), the “Fold change of gene expression: BAX” value is reported as 1.39, the “Fold change of gene expression: CCL5” value turned out to be 1.24, the “Fold change of gene expression: CCR5” value was found to be 0.9 and the “Fold change of gene expression: CD8A” value was found to be 1.3. In addition, in the assay with cultured PINK cells (setting [2]), the “Fold change of gene expression: CD68” value is on record as 4.04, the “Fold change of gene expression: CSF2” value is 2.32, the “Fold change of gene expression: FAS” value was 1.11 and the “Fold change of gene expression: GUSB” value worked out at 1.13. Also, in the assay on cultured PINK cells (setting [2]), the “Fold change of gene expression: IL2RA” value amounted to 1.26 and the “Fold change of gene expression: TNFRSF18” value was determined as 0.7.

Values taken from patent EP2411506B1, “TUMOR SUPPRESSION USING HUMAN PLACENTA-DERIVED INTERMEDIATE NATURAL KILLER CELLS AND IMMUNOMODULATORY COMPOUNDS” (Celularity, Inc., priority 2009, dated 2010).
